Source: the NIST ThermoML archive (doi:10.1016/j.jct.2009.03.009)

What was measured:
[1] = refractive index (Na D-line) (dimensionless); xn = mol fraction of the nth substance listed; conditions: 313.15 K, 101 kPa, Liquid, Standard Abbe refractometry
[2] = xn = mol fraction of the nth substance listed; conditions: 313.15 K, 101 kPa, Liquid; for speed of sound: Sing-around technique in a fixed-path interferometer; for mass density: Vibrating tube method

c1ccccc1 [benzene] + CCCCCC
Conditions	mass density, [2] [kg/m3]	refractive index, [1]	speed of sound, [2] [m/s]
x2 = 0	857.4	1.48752	1230
x2 = 0.0378	845.3	1.48075	1214.8
x2 = 0.1009	825.8	1.46941	1191.1
x2 = 0.1986	797.9	1.45313	1158.5
x2 = 0.2979	772.2	1.43818	1129.8
x2 = 0.402	747.7	1.42416	1104.3
x2 = 0.6024	706.3	1.40043	1063.9
x2 = 0.7014	688.2	1.39011	1047.7
x2 = 0.801	671.4	1.38019	1033.2
x2 = 0.9083	654.9	1.37148	1020.2
x2 = 0.9464	649.2	1.36837	1015.9

c1ccccc1 [benzene] + CCCCCCC
Conditions	mass density, [2] [kg/m3]	refractive index, [1]	speed of sound, [2] [m/s]
x2 = 0	857.4	1.48752	1230
x2 = 0.0511	840.8	1.47784	1210.9
x2 = 0.1025	825.2	1.46808	1193.3
x2 = 0.1998	798.6	1.45273	1165.5
x2 = 0.2987	775	1.43808	1142.8
x2 = 0.3972	754.3	1.42586	1124.4
x2 = 0.5013	734.9	1.4148	1108.9
x2 = 0.5998	718.5	1.40552	1096.8
x2 = 0.698	703.7	1.39777	1086.4
x2 = 0.8043	689.4	1.38985	1077.8
x2 = 0.9013	677.7	1.38322	1071.6
x2 = 0.9518	671.9	1.38025	1068.8

c1ccccc1 [benzene] + CCCCCCCC
x2 = 0
Conditions	mass density [kg/m3]	refractive index	speed of sound [m/s]
[1]	–	1.48752	–
[2]	857.4	–	1230

c1ccccc1 [benzene] + CCCCCCCCC
x2 = 0
Conditions	mass density [kg/m3]	refractive index	speed of sound [m/s]
[1]	–	1.48752	–
[2]	857.4	–	1230

CCc1ccccc1 [ethylbenzene] + CCCCCC
Conditions	mass density, [2] [kg/m3]	refractive index, [1]	speed of sound, [2] [m/s]
x2 = 0	849.2	1.48426	1256.9
x2 = 0.0465	839.4	1.47929	1243.8
x2 = 0.0771	832.8	1.47548	1235
x2 = 0.201	806.5	1.46016	1200.8
x2 = 0.3015	785.2	1.44756	1173.9
x2 = 0.399	764.7	1.43582	1148.5
x2 = 0.5092	741.7	1.42251	1121.1
x2 = 0.601	722.6	1.41135	1098.9
x2 = 0.7012	702	1.39924	1075.7
x2 = 0.7999	681.9	1.38766	1054.1
x2 = 0.8993	661.7	1.3759	1031.8
x2 = 0.9534	650.8	1.36962	1020.3

CCc1ccccc1 [ethylbenzene] + CCCCCCC
Conditions	mass density, [2] [kg/m3]	refractive index, [1]	speed of sound, [2] [m/s]
x2 = 0	849.2	1.48426	1256.9
x2 = 0.0494	838.5	1.47846	1243.9
x2 = 0.1039	826.9	1.47131	1229.8
x2 = 0.2025	806.7	1.4594	1205.9
x2 = 0.3022	786.8	1.44788	1183.7
x2 = 0.4038	767.2	1.43628	1162.6
x2 = 0.5006	749.3	1.42574	1144.6
x2 = 0.6003	731.6	1.41536	1126.9
x2 = 0.7014	714.3	1.40513	1109.8
x2 = 0.8048	697.3	1.39516	1094.8
x2 = 0.9028	681.7	1.38607	1079.9

CCc1ccccc1 [ethylbenzene] + CCCCCCCC
Conditions	mass density, [2] [kg/m3]	refractive index, [1]	speed of sound, [2] [m/s]
x2 = 0	849.2	1.48426	1256.9
x2 = 0.0536	837.6	1.47786	1244.1
x2 = 0.1028	827.4	1.47159	1232.9
x2 = 0.2037	807.4	1.45954	1212.1
x2 = 0.3032	788.7	1.4483	1193.8
x2 = 0.4015	771.4	1.43795	1177.7
x2 = 0.5013	755	1.42817	1163.3
x2 = 0.6039	739.2	1.41883	1150.1
x2 = 0.701	725.1	1.41043	1138.8
x2 = 0.7996	711.6	1.40254	1128.3
x2 = 0.9012	698.6	1.39489	1119.3
x2 = 0.9515	692.3	1.39112	1115

CCc1ccccc1 [ethylbenzene] + CCCCCCCCC
x2 = 0
Conditions	mass density [kg/m3]	refractive index	speed of sound [m/s]
[1]	–	1.48426	–
[2]	849.2	–	1256.9

CCCCCCC [heptane] + CCc1ccccc1
x1 = 1
Conditions	mass density [kg/m3]	refractive index	speed of sound [m/s]
[1]	–	1.37737	–
[2]	666.6	–	1066.5

CCCCCCC [heptane] + Cc1ccccc1
x1 = 1
Conditions	mass density [kg/m3]	refractive index	speed of sound [m/s]
[1]	–	1.37737	–
[2]	666.6	–	1066.5

CCCCCCC [heptane] + c1ccccc1
x1 = 1
Conditions	mass density [kg/m3]	refractive index	speed of sound [m/s]
[1]	–	1.37737	–
[2]	666.6	–	1066.5

CCCCCC [hexane] + CCc1ccccc1
x1 = 1
Conditions	mass density [kg/m3]	refractive index	speed of sound [m/s]
[1]	–	1.36411	–
[2]	641.4	–	1010.3

CCCCCC [hexane] + Cc1ccccc1
Conditions	mass density, [2] [kg/m3]	refractive index, [1]	speed of sound, [2] [m/s]
x1 = 0.1032	822.9	1.47028	1208.5
x1 = 0.198	800.5	1.4571	1180.8
x1 = 0.2997	777.5	1.44367	1153.5
x1 = 0.4027	755.1	1.43045	1127.5
x1 = 0.5005	734.6	1.41844	1104.6
x1 = 0.5998	714.7	1.40685	1083.1
x1 = 0.6987	695.5	1.3956	1063.3
x1 = 0.7984	677	1.38476	1044.5
x1 = 0.9042	658.1	1.37387	1026.3
x1 = 1	641.4	1.36411	1010.3

CCCCCC [hexane] + c1ccccc1
x1 = 1
Conditions	mass density [kg/m3]	refractive index	speed of sound [m/s]
[1]	–	1.36411	–
[2]	641.4	–	1010.3

CCCCCCCCC [nonane] + CCc1ccccc1
Conditions	mass density, [2] [kg/m3]	refractive index, [1]	speed of sound, [2] [m/s]
x1 = 0.0527	837.7	1.47759	1245.4
x1 = 0.1043	827.1	1.47111	1234.9
x1 = 0.2032	808.1	1.45968	1217.6
x1 = 0.3009	791	1.44884	1203.2
x1 = 0.4018	774.9	1.43899	1190.7
x1 = 0.5009	760.3	1.43055	1180.1
x1 = 0.6003	746.9	1.42241	1171.2
x1 = 0.7012	734.4	1.41482	1163.5
x1 = 0.8044	722.4	1.40792	1156.7
x1 = 0.9026	712	1.40178	1151.1
x1 = 0.9519	707	1.39883	1148.8
x1 = 1	702.2	1.39609	1146.4

CCCCCCCCC [nonane] + Cc1ccccc1
Conditions	mass density, [2] [kg/m3]	refractive index, [1]	speed of sound, [2] [m/s]
x1 = 0.1045	823.2	1.4692	1217.6
x1 = 0.2019	802.9	1.45691	1200.3
x1 = 0.3002	785	1.44571	1187
x1 = 0.4021	768.7	1.43571	1176
x1 = 0.502	754.5	1.42674	1167.7
x1 = 0.601	741.9	1.41934	1161.1
x1 = 0.696	731	1.41289	1156.2
x1 = 0.8032	719.9	1.40639	1151.8
x1 = 0.9022	710.6	1.40097	1148.9
x1 = 0.9501	706.4	1.3985	1147.7
x1 = 1	702.2	1.39609	1146.4

CCCCCCCCC [nonane] + c1ccccc1
Conditions	mass density, [2] [kg/m3]	refractive index, [1]	speed of sound, [2] [m/s]
x1 = 0.0535	839.7	1.47693	1212.1
x1 = 0.1025	825.4	1.46801	1199
x1 = 0.2013	800.8	1.45327	1179.5
x1 = 0.3006	780.6	1.44079	1166.1
x1 = 0.3997	763.8	1.43104	1157.2
x1 = 0.5	749.5	1.42229	1151.4
x1 = 0.5992	737.3	1.41549	1147.7
x1 = 0.7052	726.2	1.40945	1145.9
x1 = 0.8034	717.2	1.40436	1145.2
x1 = 0.9018	709.3	1.3999	1145.6
x1 = 0.9499	705.7	1.39796	1145.9
x1 = 1	702.2	1.39609	1146.4

CCCCCCCC [octane] + CCc1ccccc1
x1 = 1
Conditions	mass density [kg/m3]	refractive index	speed of sound [m/s]
[1]	–	1.38769	–
[2]	686.3	–	1110.6
